Earlier results on two compounds are cited in patent publication US20110104281A1, “METHOD FOR TREATING PAIN USING A SUBSTITUTED 2-AMINOTETRALIN COMPOUND” (UCB PHARMA GMBH, priority 2006, published 2011).

The structures appear in SMILES notation.

The target in one data set is α2C (Homo sapiens, UniProt P18825). Conditions: cited from earlier work.
The target in another data set is 5-HT7 (Homo sapiens, UniProt P34969). Conditions: cited from earlier work.
In the next data set the test system is fibromyalgia patients. Conditions: preliminary clinical studies; cited from earlier work.
Another data set deals with D1 receptor (Homo sapiens, UniProt P21728). To be noted: cited from earlier work.
The next data set has as its target 5-HT1A receptor (Homo sapiens, UniProt P08908). To be noted: cited from earlier work.
The next data set deals with D3 receptor (Homo sapiens, UniProt P35462). To be noted: cited from earlier work.
The target of the next data set is α2B receptor (Homo sapiens, UniProt P18089). Conditions: cited from earlier work.
Chain of α2B receptor (P18089 whole entry): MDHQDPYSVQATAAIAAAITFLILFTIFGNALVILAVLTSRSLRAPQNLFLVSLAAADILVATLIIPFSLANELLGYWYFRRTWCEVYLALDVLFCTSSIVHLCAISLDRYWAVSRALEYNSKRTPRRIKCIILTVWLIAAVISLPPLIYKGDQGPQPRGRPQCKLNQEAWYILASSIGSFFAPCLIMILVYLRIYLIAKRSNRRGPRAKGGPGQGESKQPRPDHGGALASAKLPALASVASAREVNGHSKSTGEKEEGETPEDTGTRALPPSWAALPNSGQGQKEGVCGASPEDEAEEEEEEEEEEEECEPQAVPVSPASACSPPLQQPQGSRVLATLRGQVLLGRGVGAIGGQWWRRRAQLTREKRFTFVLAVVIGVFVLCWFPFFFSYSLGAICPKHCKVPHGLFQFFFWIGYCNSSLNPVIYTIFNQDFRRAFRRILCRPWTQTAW

Chain of 5-HT1A receptor (P08908 whole entry): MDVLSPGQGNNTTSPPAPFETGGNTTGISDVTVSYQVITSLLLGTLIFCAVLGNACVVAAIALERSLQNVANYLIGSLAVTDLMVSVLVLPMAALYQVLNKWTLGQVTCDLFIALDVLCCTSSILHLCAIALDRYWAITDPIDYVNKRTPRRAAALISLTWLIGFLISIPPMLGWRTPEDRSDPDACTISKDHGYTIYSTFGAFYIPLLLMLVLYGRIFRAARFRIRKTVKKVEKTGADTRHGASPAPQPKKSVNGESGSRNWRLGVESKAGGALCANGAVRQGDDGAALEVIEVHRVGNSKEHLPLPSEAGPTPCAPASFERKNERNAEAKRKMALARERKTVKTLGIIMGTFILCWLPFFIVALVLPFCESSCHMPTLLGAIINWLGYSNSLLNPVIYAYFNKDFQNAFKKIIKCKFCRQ
Chain of 5-HT7 (P34969 whole entry, species assumed): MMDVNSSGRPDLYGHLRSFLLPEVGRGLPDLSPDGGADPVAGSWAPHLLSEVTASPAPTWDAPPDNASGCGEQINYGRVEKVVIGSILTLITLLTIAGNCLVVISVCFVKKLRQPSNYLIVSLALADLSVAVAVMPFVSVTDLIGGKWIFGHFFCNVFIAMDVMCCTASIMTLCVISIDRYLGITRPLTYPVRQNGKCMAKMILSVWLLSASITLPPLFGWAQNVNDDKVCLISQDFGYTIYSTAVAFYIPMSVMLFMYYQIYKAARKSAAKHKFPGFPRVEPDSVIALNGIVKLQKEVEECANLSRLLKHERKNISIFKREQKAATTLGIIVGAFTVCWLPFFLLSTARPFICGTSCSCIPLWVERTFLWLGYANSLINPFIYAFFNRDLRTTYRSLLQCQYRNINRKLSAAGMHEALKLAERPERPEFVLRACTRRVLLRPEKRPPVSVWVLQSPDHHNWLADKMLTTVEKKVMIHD
Chain of D1 receptor (P21728 whole entry): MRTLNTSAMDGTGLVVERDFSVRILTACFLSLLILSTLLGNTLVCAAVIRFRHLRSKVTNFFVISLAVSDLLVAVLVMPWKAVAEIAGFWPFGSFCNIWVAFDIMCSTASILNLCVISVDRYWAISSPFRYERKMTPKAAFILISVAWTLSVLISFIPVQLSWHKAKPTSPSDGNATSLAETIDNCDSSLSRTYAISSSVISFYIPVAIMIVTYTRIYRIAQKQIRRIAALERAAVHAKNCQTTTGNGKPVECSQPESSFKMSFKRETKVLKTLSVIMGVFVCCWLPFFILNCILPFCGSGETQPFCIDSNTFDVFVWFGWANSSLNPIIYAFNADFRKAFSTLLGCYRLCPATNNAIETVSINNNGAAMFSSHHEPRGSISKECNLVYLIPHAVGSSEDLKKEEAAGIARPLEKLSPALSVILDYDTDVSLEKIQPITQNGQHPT
Chain of D3 receptor (P35462 whole entry): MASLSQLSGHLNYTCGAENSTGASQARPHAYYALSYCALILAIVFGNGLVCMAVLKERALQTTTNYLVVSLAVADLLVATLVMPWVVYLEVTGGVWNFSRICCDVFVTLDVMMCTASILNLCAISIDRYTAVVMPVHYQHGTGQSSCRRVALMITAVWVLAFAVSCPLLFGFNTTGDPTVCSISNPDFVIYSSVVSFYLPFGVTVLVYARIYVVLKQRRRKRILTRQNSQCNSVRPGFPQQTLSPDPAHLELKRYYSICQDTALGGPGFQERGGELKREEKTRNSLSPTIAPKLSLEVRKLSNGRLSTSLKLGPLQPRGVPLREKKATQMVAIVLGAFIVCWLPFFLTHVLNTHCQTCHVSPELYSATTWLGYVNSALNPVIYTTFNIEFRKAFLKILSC
Chain of α2C (P18825 whole entry): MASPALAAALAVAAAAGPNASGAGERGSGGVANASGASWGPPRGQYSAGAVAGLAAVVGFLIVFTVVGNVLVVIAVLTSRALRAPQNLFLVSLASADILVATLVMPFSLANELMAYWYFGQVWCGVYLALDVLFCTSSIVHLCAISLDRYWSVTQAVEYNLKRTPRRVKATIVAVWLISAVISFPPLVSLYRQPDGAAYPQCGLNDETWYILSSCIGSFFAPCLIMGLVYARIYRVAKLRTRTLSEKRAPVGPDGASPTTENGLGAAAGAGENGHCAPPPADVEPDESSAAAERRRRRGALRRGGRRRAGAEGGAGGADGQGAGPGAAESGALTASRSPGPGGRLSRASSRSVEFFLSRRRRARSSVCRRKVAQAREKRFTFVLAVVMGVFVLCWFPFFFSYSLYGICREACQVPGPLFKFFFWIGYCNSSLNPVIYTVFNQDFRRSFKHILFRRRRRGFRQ

For `CCCN[C@H]1CCc2nc(N)sc2C1` [Pramipexole], the “Affinity for α2C” value on α2C was “only weak or no affinity”. On 5-HT7, the “Affinity for 5-HT7” value was “only weak or no affinity”. The “Pain in fibromyalgia patients” value with fibromyalgia patients was “shown to reduce pain”. In addition, on D1 receptor, the “Affinity for D1 receptor” value is “only weak or no affinity”. The “Affinity / action at 5-HT1A receptor” value on 5-HT1A receptor is reported as “only weak or no affinity”. Also, the “Affinity for D3 receptor” value on D3 receptor is given as “strongest affinity for D3”. In addition, the “Affinity / action at α2B receptor” value on α2B receptor is “only weak or no affinity”.

With `CCCN(CCC)CCc1cccc2c1CC(=O)N2` [ropinirole], at α2C, the “Affinity for α2C” value was “only weak or no affinity”. For the same compound, the “Affinity for 5-HT7” value on 5-HT7 was “only weak or no affinity”. The “Pain in fibromyalgia patients” value in the data set on fibromyalgia patients is recorded as “shown to reduce pain”. The “Affinity for D1 receptor” value on D1 receptor is listed as “only weak or no affinity”. The “Affinity / action at 5-HT1A receptor” value at 5-HT1A receptor is “only weak or no affinity”. Also, the “Affinity for D3 receptor” value on D3 receptor is reported as “strongest affinity for D3”. Further, on α2B receptor, the “Affinity / action at α2B receptor” value was “only weak or no affinity”.
